Assay results taken from patent US11246907B2, “Immunosuppressive agents and their use in therapy” (Norwegian University of Science and Technology, priority 2013, dated 2022).
Ends that are not written are not given here.

Tested on: Akt Ser473 phosphorylation
Experiment: Western blot of Akt Ser473 phosphorylation in peripheral blood monocytes
Assay type: cell-based, human
Conditions: 4 μM ATX-101, 4 h
Protocol: Data is from one representative donor out of three; and (B-E) show multiplex analysis of cytokine levels produced by peripheral blood monocytes stimulated with 10 ng/ml LPS (B and D, same donor) and 40 μg/ml polyIC (C and E, same donor) after 4 h. (B and C) Stimulated-monocytes were treated with 4 μM ATX-101, 10 μM SB203580 (p38 MAPK inhibitor), and combination of ATX-101 and SB203580. (D and E) Stimulated-monocytes were treated with 4 μM ATX-101, 5 and 10 μM LY294002 (PI3K class I inhibitor), and combination of ATX-101 and LY294002. Measured cytokine levels were normalized to cytokine levels from monocytes stimulated with TLR ligand alone. A two fold or higher increase in cytokine level after TLR stimulation was defined as cytokine induction. # Value is too low to be visible in the column diagram; ? cytokine measurement was out of range. Data is from representative experiments out of two.
Mononucleated cells were seeded and stimulated as described above. JJN-3 cells were treated with ATX-101 (6 μM) for 4 h. HaCaT cells were treated with ATX-101 (12 μM), polylC (2 μg/ml), and LPS (100 ng/ml) for 4 h. […] The proteins were visualized with the Odyssey infrared imaging system (LI-COR) and quantified using Odyssey Image Studio V2. […]

Ac-MDRWLVKWKKKRKIRRRRRRRRRRR [ATX-101]
LPS- and polyIC-induced and basal Akt phosphorylation: reduced
